Experimental data as given in ChEMBL document CHEMBL4130589, “Synthesis of Novel Selenides Bearing Benzenesulfonamide Moieties as Carbonic Anhydrase I, II, IV, VII, and IX Inhibitors” (ACS Med Chem Lett, 2017).

Biological target: Carbonic anhydrase 9 (Homo sapiens, UniProt Q16790)
Assay: Inhibition of recombinant human carbonic anhydrase 9 incubated for 15 mins by stopped flow CO2 hydrase assay

Compound | Ki [nM]
C=C(C)[C@@H]1CCC(C)(O)C([Se]c2ccc(S(N)(=O)=O)cc2)C1 (stereo partly drawn) | 2.4
NS(=O)(=O)c1ccc([Se][Se]c2ccc(S(N)(=O)=O)cc2)cc1 | 2.7
CC(C)OCC(O)C[Se]c1ccc(S(N)(=O)=O)cc1 (stereo not drawn) | 15.9
CC(C)[C@H](N)C[Se]c1ccc(S(N)(=O)=O)cc1 | 2.4
Cc1ccc(S(=O)(=O)N[C@H](C[Se]c2ccc(S(N)(=O)=O)cc2)C(C)C)cc1 | 10.1
CC(C)[C@@H](C[Se]c1ccc(S(N)(=O)=O)cc1)NC(=O)OC(C)(C)C | 2.3
CCCCC(O)C[Se]c1ccc(S(N)(=O)=O)cc1 (stereo not drawn) | 5.6
Cc1ccc(S(=O)(=O)N[C@H](C[Se]c2ccc(S(N)(=O)=O)cc2)Cc2ccccc2)cc1 | 2.4
NS(=O)(=O)c1ccc([Se]C2CCCCC2O)cc1 (stereo not drawn) | 8.3
C=CCOCC(O)C[Se]c1ccc(S(N)(=O)=O)cc1 (stereo not drawn) | 11.9
N#C[Se]c1ccc(S(N)(=O)=O)cc1 | 9.3
NS(=O)(=O)c1ccc([Se]CC(O)COCc2ccccc2)cc1 (stereo not drawn) | 10.1
NS(=O)(=O)c1ccc([Se]CC(O)CBr)cc1 (stereo not drawn) | 6.5
